Results from patent EP4707280A1, “1,4-CINEOLE DERIVATIVE AND INTERMEDIATE THEREOF, HERBICIDE CONTAINING SAID DERIVATIVE AS ACTIVE INGREDIENT, METHOD FOR USING HERBICIDE, AND METHOD FOR PREPARING AGROCHEMICAL COMPOSITION” (HOKKO CHEMICAL INDUSTRY CO., LTD., priority 2023, dated 2024).

What was measured:
Type in all cases: in vivo
[1] = test system: Amaranthus viridis; assay: Test Example 3: herbicidal effect test by soil application in upland field; conditions: Amaranthus viridis, 120 g per 10 ares, sprayed one day after sowing, 14 days after application, read-out: weed inhibition rate
How it was run: (§1)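 Weed inhibition (%) was assessed 14 days after treatment, in duplicate per concentration group. Seeds had been mixed into the upper 1 cm of upland alluvial loam, and the soil surface was sprayed one day later with the diluted emulsifiable concentrate at 120 g active ingredient per 10 ares.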

[2] = test system: Echinochloa crus-galli; assay: as above; conditions: Echinochloa crus-galli, 120 g per 10 ares, sprayed one day after sowing, 14 days after application, read-out: weed inhibition rate
How it was run: as §1

[3] = test system: Digitaria ciliaris; assay: as above; conditions: Digitaria ciliaris, 120 g per 10 ares, sprayed one day after sowing, 14 days after application, read-out: weed inhibition rate
How it was run: as §1

[4] = test system: Chenopodium album; assay: as above; conditions: 120 g per 10 ares, sprayed one day after sowing, 14 days after application, read-out: weed inhibition rate
How it was run: as §1

[5] = test system: Scirpus juncoides; assay: Test Example 5: herbicidal effect test by soil application in paddy rice (low dose); conditions: Schoenoplectiella juncoides, 336 h, 7.5 g per 10 ares, applied immediately after sowing, flooded pots, 14 days after application, read-out: weed inhibition rate
Protocol: The present test was conducted in duplicate for each chemical concentration group, and the weed inhibition rate (%) was determined 14 days after chemical application using the following formula (Math. 1). [formula]
Wagner pots with an area of […] were filled with paddy soil, followed by addition of water and incorporation of chemical fertilizer (N:P:K = 16:16:16), after which puddling was performed. After that, seeds of Echinochloa crus-galli var. formosensis, broad-leaved weeds (Monochoria vaginalis), and Scirpus juncoides were sown at a depth of 0 cm to 1 cm, 30 seeds each. Immediately after sowing, the pots were flooded and a water depth of approximately 3 cm was maintained. Subsequent management was conducted in a glass greenhouse. Immediately thereafter, an emulsifiable concentrate prepared according to Formulation Example 5 using the compound shown below was diluted with water, and a specified amount of the diluted solution was applied by dropper. The amount of the active ingredient to be applied was equivalent to 7.5 g per 10 ares.
The present test was conducted in duplicate for each chemical concentration group, and the herbicidal effect was evaluated 14 days after chemical application using the same criteria as in Test Example 1.

[6] = test system: Echinochloa crus-galli var. formosensis; assay: Test Example 2: herbicidal effect test by application during growth period of paddy rice; conditions: Echinochloa crus-galli; 120 g per 10 ares; applied seven days after sowing, flooded pots; 14 days after application; read-out: weed inhibition rate
How it was run: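 Paddy soil in Wagner pots was puddled with N:P:K 16:16:16 fertilizer, sown with 30 weed seeds per species at 0–1 cm and flooded to about 3 cm. Seven days after sowing, a water-diluted emulsifiable concentrate was dropped onto the water at 120 g active ingredient per 10 ares. Weed inhibition (%) was scored at 14 days, in duplicate.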

[7] = test system: Echinochloa crus-galli var. formosensis; assay: Test Example 1: herbicidal effect test by soil application in paddy rice; conditions: Echinochloa crus-galli, soil, 336 h; 120 g active ingredient per 10 ares; applied immediately after sowing, flooded pots; 14 days after application; read-out: weed inhibition rate
How it was run: (§2)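 Flooded-pot paddy assay: sow at 0–1 cm, flood to about 3 cm, then apply diluted emulsifiable concentrate by dropper, 120 g a.i. per 10 ares; greenhouse-grown.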

[8] = test system: Scirpus juncoides; assay: as above; conditions: Schoenoplectiella juncoides, soil, 336 h; 120 g active ingredient per 10 ares; applied immediately after sowing, flooded pots; 14 days after application; read-out: weed inhibition rate
How it was run: as §2

[9] = test system: Amaranthus viridis; assay: Test Example 7: herbicidal effect test by soil application in upland field (low dose); conditions: 7.5 g per 10 ares, sprayed one day after sowing, upland soil, 14 days after application, read-out: weed inhibition rate
[10] = test system: Echinochloa crus-galli; assay: as above; conditions: Echinochloa crus-galli, 7.5 g per 10 ares, sprayed one day after sowing, 14 days after application, read-out: weed inhibition rate
How it was run: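 Pre-emergence soil application: upland alluvial loam pots sown with weed seeds mixed into the top 1 cm; one day after sowing, a water-diluted emulsifiable concentrate was sprayed on the soil at 100 L per 10 a, delivering 7.5 g active ingredient per 10 a. Weed inhibition rate (%) scored 14 days after application, duplicate pots.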

[11] = test system: Digitaria ciliaris; assay: Test Example 4: herbicidal effect test by stem and leaf treatment in upland field; conditions: Digitaria ciliaris; 120 g per 10 ares; sprayed seven days after sowing, upland soil; 14 days after application; read-out: weed inhibition rate
[12] = test system: Echinochloa crus-galli var. formosensis; assay: Test Example 5: herbicidal effect test by soil application in paddy rice (low dose); conditions: Echinochloa crus-galli, soil, 336 h; 7.5 g per 10 ares; applied immediately after sowing, flooded pots; 14 days after application; read-out: weed inhibition rate
How it was run: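 Paddy soil in Wagner pots was fertilized (N:P:K 16:16:16), puddled, sown with 30 seeds per weed species at 0–1 cm, then flooded to ~3 cm in a glass greenhouse. Emulsifiable concentrate diluted in water was dropper-applied into floodwater immediately, at 7.5 g active ingredient per 10 ares; duplicates, scored at 14 days.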

[13] = test system: Echinochloa crus-galli; assay: Test Example 8: herbicidal effect test by stem and leaf treatment in upland field (low dose); conditions: Echinochloa crus-galli; 7.5 g per 10 ares; sprayed seven days after sowing, upland soil; 14 days after application; read-out: weed inhibition rate
[14] = test system: Echinochloa crus-galli; assay: Test Example 4: herbicidal effect test by stem and leaf treatment in upland field; conditions: Echinochloa crus-galli; 120 g per 10 ares; sprayed seven days after sowing, upland soil; 14 days after application; read-out: weed inhibition rate

CC(C)[C@]12C[C@@H](OCc3ccccc3C(F)(F)F)[C@](C)(CC1=O)O2 [2-29, (1R,4S,5R)-1-isopropyl-4-methyl-5-((2-(trifluoromethyl)benzyl)oxy)-7-oxabicyclo[2.2.1]heptan-2-one]
≥ 80%: inhibition at 1200 g/ha [1] | inhibition at 1200 g/ha [2] | inhibition at 1200 g/ha [3] | inhibition at 1200 g/ha [4] | inhibition at 75 g/ha [5] | inhibition at 1200 g/ha [6] | pest or weed control at 1200 g/ha [7] | pest or weed control at 1200 g/ha [8] | inhibition at 75 g/ha [9] | inhibition at 75 g/ha [10] | inhibition at 1200 g/ha [11] | inhibition at 75 g/ha [12] | inhibition at 75 g/ha [13] | inhibition at 1200 g/ha [14]
